Measurements published in patent US20260335388A1, “COMBINATION THERAPIES WITH ONCOLYTIC ADENOVIRUS AND TOPOISOMERASE I INHIBITORS OR PRODRUGS THEREOF” (priority 2022, published 2026).

Assays:
CDKN1A = type: cell-based, human; conditions: RBT-7 cells pre-infected with VCN-01; topotecan 2 μM (FIG. 17F)
Experimental: To assess the expression of genes involved in the cell cycle, 6-well culture plates containing 2×10^6 retinoblastoma cells were used. VCN-01 was added at 50 MOI for 48 h, followed by the addition of topotecan (2 μM), […] (12.5 μM) or culture medium. The cell pellets were collected 24 h later. The samples were plated in the TaqMan® Array of Human Cyclins & Cell Cycle Regulation (Thermo Fisher Scientific). This array contains 92 assays of cell cycle-associated genes and assays of GAPDH, 18S, HPRT1 and GUSB as endogenous control genes. the threshold cycle (Ct) value ≥35 was established as absence of expression. The mean expression value of the controls was used to normalize gene expression values. The thresholds for upregulation and downregulation were 2^−ΔΔCt≥2.0 and 2^−ΔΔct≤0.5, respectively (Livak and Schmittgen, “Analysis of relative gene expression data using real-time quantitative PCR and the 2 (−Delta Delta C(T)) Method,” Methods 2001; 25(4):402-8).
SYBR primers were CDKN1A (Forward 5′-GGACAGGAGAGGAAGACCATGT-3′ (SEQ ID NO: 15), Reverse 5′-TGGAGTGGTAGAATTCTGTCATGC-3′ (SEQ ID NO: 16) and CDK6 (Forward 5′-CCAGGCAGGCTTTTCATTCA-3′ (SEQ ID NO: 17), Reverse 5′-AGGTCCTGGAAGTATGGGTG-3′ (SEQ ID NO: 18).

[1] = system: RBT-7 intracerebral tumors; experiment: Brain analyses at end of treatment, CNS-disseminated retinoblastoma; type: in vivo, mouse; conditions: end of treatment (FIG. 22G)
[2] = cited from earlier work
[3] = non-tumor bearing pigs, cited from earlier work

In the case of `CC[C@@]1(O)C(=O)OCc2c1cc1n(c2=O)Cc2cc3c(CN(C)C)c(O)ccc3nc2-1` [Topotecan, topotecan], the “increase in expression of CDKN1A” value (CDKN1A) is given as 10 fold, the “expression of CDKN1A in brain homogenates” value [1] is given as “highest expression of CDKN1A” and the ocular toxicity ([2]; all routes of administration) is given as “minimal”. For the same molecule, the “passage to the vitreous” value ([2]; given intravenously and intraarterially) was “favorable passage to the vitreous”, the “systemic exposure, OAC versus IV” value [3] was “systemic exposure was comparable between the two routes” and the “topotecan concentration in retina, OAC versus IV” value ([3]; retina, after OAC than after IV) was 146 times higher. For the same molecule, the “topotecan concentration in vitreous, OAC versus IV” value ([3]; vitreous, after OAC than after IV) was 243 times higher.
